Measurements as given in ChEMBL document CHEMBL1201862, “PubChem BioAssay data set” (2004).
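How tested: cells in 96-well plates exposed to compound for 48 hours at five concentrations. GI50: concentration for 50% inhibition of growth.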 Calls of active or inactive are those of the source. Rule as the data show it: active = GI50 up to about 1.1 µM and inactive = higher.

Legend:
Assay in all cases: inhibition of tumour cell growth, NCI panel, 48 h
DMS-114 = test system: DMS-114
SW-620 = test system: SW-620
NCI-H460 = test system: NCI-H460
NCI-H23 = test system: NCI-H23
HOP-92 = test system: HOP-92
OVCAR-5 = test system: OVCAR-5
SNB-78 = test system: SNB-78
XF498 = test system: XF498
SN12C = test system: SN12C
SF-539 = test system: SF-539
U-251 = test system: U-251
M19-MEL = test system: M19-MEL
DMS-273 = test system: DMS-273
SNB-75 = test system: SNB-75
A498 = test system: A498
SNB-19 = test system: SNB-19
HOP-18 = test system: HOP-18
KM-20L2 = test system: KM-20L2
HOP-62 = test system: HOP-62
KM12 = test system: KM12
COLO 205 = test system: COLO 205
OVCAR-8 = test system: OVCAR-8
CAKI-1 = test system: CAKI-1
SF-295 = test system: SF-295
OVCAR-3 = test system: OVCAR-3
UACC-257 = test system: UACC-257
OVCAR-4 = test system: OVCAR-4
786-0 = test system: 786-0
SK-MEL-28 = test system: SK-MEL-28
A549 = test system: A549
HT-29 = test system: HT-29
ACHN = test system: ACHN
SK-MEL-5 = test system: SK-MEL-5
K562 = test system: K562
RXF 393 = test system: RXF 393
HCT-116 = test system: HCT-116
EKVX = test system: EKVX
IGROV-1 = test system: IGROV-1
Malme-3M = test system: Malme-3M
TK-10 = test system: TK-10
UACC-62 = test system: UACC-62
LOX IMVI = test system: LOX IMVI
HCT-15 = test system: HCT-15
SK-MEL-2 = test system: SK-MEL-2
SF-268 = test system: SF-268
RPMI-8226 = test system: RPMI-8226
DLD-1 = test system: DLD-1
MOLT-4 = test system: MOLT-4
SK-OV-3 = test system: SK-OV-3
LXFL 529 = test system: LXFL 529
SR = test system: SR
NCI-H226 = test system: NCI-H226
M14 = test system: M14
UO-31 = test system: UO-31

With `CC(C)(C)/N=C\N1CCC(C(c2ccccc2)c2ccccc2)CC1` the GI50 (DMS-114) was 72.1 µM (inactive), the GI50 (SW-620) was > 100 µM (inactive) and the GI50 (NCI-H460) was 87.7 µM (inactive). For the same compound, the GI50 (NCI-H23) was > 100 µM (inactive), the GI50 (HOP-92) was 31.7 µM (inactive) and the GI50 (OVCAR-5) was 54.2 µM (inactive). The GI50 (SNB-78) was 64.6 µM (inactive), the GI50 (XF498) was 30.8 µM (inactive) and the GI50 (SN12C) was 78.3 µM (inactive). For the same compound, the GI50 (SF-539) was 78.7 µM (inactive), the GI50 (U-251) was 60.4 µM (inactive) and the GI50 (M19-MEL) was 37.2 µM (inactive). The GI50 (DMS-273) was 65.3 µM (inactive), the GI50 (SNB-75) was 21.9 µM (inactive) and the GI50 (A498) was 38.3 µM (inactive). For the same compound, the GI50 (SNB-19) was > 100 µM (inactive), the GI50 (HOP-18) was 53.2 µM (inactive) and the GI50 (KM-20L2) was 14.9 µM (inactive). The GI50 (HOP-62) was > 100 µM (inactive), the GI50 (KM12) was 65.8 µM (inactive) and the GI50 (COLO 205) was 19.1 µM (inactive). The GI50 (OVCAR-8) was > 100 µM (inactive), the GI50 (CAKI-1) was 42.4 µM (inactive) and the GI50 (SF-295) was > 100 µM (inactive). For the same compound, the GI50 (OVCAR-3) was 80.5 µM (inactive), the GI50 (UACC-257) was 37.3 µM (inactive) and the GI50 (OVCAR-4) was 46.8 µM (inactive). For the same compound, the GI50 (786-0) was > 100 µM (inactive), the GI50 (SK-MEL-28) was 43.4 µM (inactive) and the GI50 (A549) was 98.4 µM (inactive). For the same compound, the GI50 (HT-29) was 21.6 µM (inactive), the GI50 (ACHN) was 82.4 µM (inactive) and the GI50 (SK-MEL-5) was 67 µM (inactive). For the same compound, the GI50 (K562) was 35.1 µM (inactive), the GI50 (RXF 393) was 22.9 µM (inactive) and the GI50 (HCT-116) was 50 µM (inactive). The GI50 (EKVX) was > 100 µM (inactive), the GI50 (IGROV-1) was > 100 µM (inactive) and the GI50 (Malme-3M) was 18.2 µM (inactive). The GI50 (TK-10) was 40.6 µM (inactive), the GI50 (UACC-62) was 35.7 µM (inactive) and the GI50 (LOX IMVI) was 23.8 µM (inactive). For the same compound, the GI50 (HCT-15) was 55.3 µM, the GI50 (SK-MEL-2) was > 100 µM (inactive) and the GI50 (SF-268) was 49.8 µM (inactive). For the same compound, the GI50 (RPMI-8226) was 45.2 µM (inactive) and the GI50 (DLD-1) was > 100 µM (inactive).

`C[N+](C)(C)CC1CCCC(C[N+](C)(C)C)C1=NO` (stereo not given) was tested, and the GI50 (SW-620) was > 100 µM (inactive), the GI50 (NCI-H460) was > 100 µM (inactive) and the GI50 (NCI-H23) was > 100 µM (inactive). For the same compound, the GI50 (OVCAR-5) was > 100 µM (inactive), the GI50 (MOLT-4) was > 100 µM (inactive) and the GI50 (SNB-78) was > 100 µM (inactive). The GI50 (SK-OV-3) was > 100 µM (inactive), the GI50 (XF498) was > 100 µM (inactive) and the GI50 (SN12C) was > 100 µM (inactive). For the same compound, the GI50 (SF-539) was > 100 µM (inactive), the GI50 (U-251) was > 100 µM (inactive) and the GI50 (M19-MEL) was > 100 µM (inactive). The GI50 (LXFL 529) was > 100 µM (inactive), the GI50 (DMS-273) was > 100 µM (inactive) and the GI50 (SNB-75) was > 100 µM (inactive). For the same compound, the GI50 (SNB-19) was > 100 µM (inactive), the GI50 (HOP-18) was > 100 µM (inactive) and the GI50 (KM-20L2) was > 100 µM (inactive). The GI50 (SR) was > 100 µM (inactive), the GI50 (KM12) was > 100 µM (inactive) and the GI50 (COLO 205) was > 100 µM (inactive). The GI50 (OVCAR-8) was > 100 µM (inactive), the GI50 (CAKI-1) was > 100 µM (inactive) and the GI50 (SF-295) was > 100 µM (inactive). For the same compound, the GI50 (OVCAR-3) was > 100 µM (inactive), the GI50 (NCI-H226) was > 100 µM (inactive) and the GI50 (UACC-257) was > 100 µM (inactive). The GI50 (OVCAR-4) was > 100 µM (inactive), the GI50 (786-0) was > 100 µM (inactive) and the GI50 (SK-MEL-28) was > 100 µM (inactive). For the same compound, the GI50 (A549) was > 100 µM (inactive), the GI50 (HT-29) was > 100 µM (inactive) and the GI50 (ACHN) was > 100 µM (inactive). For the same compound, the GI50 (SK-MEL-5) was > 100 µM (inactive), the GI50 (K562) was > 100 µM (inactive) and the GI50 (RXF 393) was > 100 µM (inactive). For the same compound, the GI50 (HCT-116) was > 100 µM (inactive), the GI50 (EKVX) was > 100 µM (inactive) and the GI50 (M14) was > 100 µM (inactive). For the same compound, the GI50 (IGROV-1) was > 100 µM (inactive), the GI50 (UO-31) was > 100 µM (inactive) and the GI50 (Malme-3M) was > 100 µM (inactive). The GI50 (TK-10) was > 100 µM (inactive), the GI50 (UACC-62) was > 100 µM (inactive) and the GI50 (HCT-15) was > 100 µM. For the same compound, the GI50 (SK-MEL-2) was > 100 µM (inactive), the GI50 (RPMI-8226) was > 100 µM (inactive) and the GI50 (DLD-1) was > 100 µM (inactive).
